Data taken from paper PMC7435600, “Flavonoids and Terpenoids with PTP-1B Inhibitory Properties from the Infusion of Salvia amarissima Ortega” (Molecules, 2020).
pIC50: −log10 of the molar value.

Experiments:
[1] = biological target: T1, protein tyrosine phosphatase 1B (PTP-1B) (Homo sapiens, UniProt P18031); test: Protein tyrosine phosphatase 1B inhibition assay (pNPP); format: biochemical; conditions: for IC50: hPTP-1B, pNPP substrate, three independent determinations, read-out: PTP-1B inhibitory activity expressed as IC50 (converted)
T1 construct: made in house
T1 sequence (P18031 1-435): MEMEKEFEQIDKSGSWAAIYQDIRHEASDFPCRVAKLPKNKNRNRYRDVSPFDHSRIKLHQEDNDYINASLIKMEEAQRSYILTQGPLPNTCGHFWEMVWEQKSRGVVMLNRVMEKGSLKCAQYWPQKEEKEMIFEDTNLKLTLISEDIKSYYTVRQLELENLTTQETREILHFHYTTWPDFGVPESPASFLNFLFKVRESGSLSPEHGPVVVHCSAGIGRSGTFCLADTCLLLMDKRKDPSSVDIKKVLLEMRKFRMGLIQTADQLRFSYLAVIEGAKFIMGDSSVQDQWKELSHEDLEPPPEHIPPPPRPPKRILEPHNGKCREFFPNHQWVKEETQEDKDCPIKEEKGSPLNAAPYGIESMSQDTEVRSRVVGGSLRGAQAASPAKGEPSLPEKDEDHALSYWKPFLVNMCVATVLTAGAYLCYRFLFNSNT
Method: The expression and purification of hPTP-1B was performed as previously described. […] Aliquots of 0–10 μL of testing materials (triplicated) were incubated for 5 min with 20 μL of enzyme stock solution in Tris-HCl (22 nM). After incubation, 10 μL of p-nitrophenylphosphate (pNPP; 5 mM) was added and further incubated for 15 min at 25 °C; then, the absorbance was determined (λmax 415 nm). For all samples, the inhibitory activity was determined as a percentage in comparison to the blank (Tris-HCl) according to the following equation:(1) % PTP1B=(1−A415t/A415C)×100 where % PTP-1B is the percentage of inhibition, A415t is the corrected absorbance of the extracts, fraction, or compounds under testing (A415end − A415initial) and A415C is the absorbance of the blank (A415end blank − A415initial blank).

mammal α-glucosidases = system: mammal α-glucosidases; set-up: method as in PMID 28422509; conditions: cited from earlier work
[2] = set-up: method as in doi:10.17129/botsci.2187; conditions: cited from earlier work
PTP-1B = system: PTP-1B; set-up: method as in PMID 22940448; conditions: other studies; cited from earlier work

IC50 [1] [µM]	SMILES	further results
137	O=C(/C=C/c1ccc(O)c(O)c1)O[C@H](Cc1ccc(O)c(O)c1)C(=O)O [Compound 5, rosmarinic acid]	–
62	COc1cc2oc(-c3ccc(O)c(O)c3)cc(=O)c2c(O)c1O [Compound 7, pedalitin]	inhibition of α-glycosidases in vivo (mammal α-glucosidases): inhibited; antinociceptive properties [2]: demonstrated
514	C[C@@H]1CC[C@@]23COC(=O)C2=C[C@@H](O[C@@H]2O[C@H](CO)[C@@H](O)[C@H](O)[C@H]2O)C[C@@H]3[C@@]1(C)CCC1=CC(=O)OC1O (stereo partly drawn) [Compound 8a,b, (2S,5S,8R,9R,10R,14R,S)-2-(O-β-D-glucopyranosyl)-neo-clerodan-14-hydroxy-3, 13-diene-14,15;18,19-diolide]	–

Further lines, the compound ahead of its results:

SMILES	IC50 [1] [µM]	further results
CC1CCC23COC(=O)C2=CC(OC2OC(CO)C(O)C(O)C2O)CC3C1(C)CCc1ccoc1 (stereo not drawn) [Compound 1, amarisolide]	280	inhibitory activity against mammal α-glucosidases (mammal α-glucosidases; in vitro and in vivo): showed inhibitory activity; inhibition of α-glycosidases in vivo (mammal α-glucosidases): inhibited; antinociceptive properties [2]: demonstrated
COc1cc(-c2cc(=O)c3c(O)c(O)c(OC)cc3o2)ccc1O [Compound 2, 5,6,4′-trihydroxy-7,3′-dimethoxyflavone]	189	–
O=c1cc(-c2ccc(O)c(O)c2)oc2cc(O)c(O)c(O)c12 [Compound 3, 6-hydroxyluteolin]	80.1	–
C[C@@H]1O[C@@H](OC[C@H]2O[C@@H](Oc3c(-c4ccc(O)c(O)c4)oc4cc(O)cc(O)c4c3=O)[C@H](O)[C@@H](O)[C@@H]2O)[C@H](O)[C@H](O)[C@H]1O [Compound 4, rutin]	323	–
O=c1c(O[C@@H]2O[C@H](CO)[C@@H](O)[C@H](O)[C@H]2O)c(-c2ccc(O)c(O)c2)oc2cc(O)cc(O)c12 [Compound 6, isoquercitrin]	260	–
C[C@H]1[C@H](C)CC[C@]2(C(=O)O)CC[C@]3(C)C(=CC[C@@H]4[C@@]5(C)CC[C@H](O)C(C)(C)[C@@H]5CC[C@]43C)[C@H]12 [UA, ursolic acid, reference compound]	–	times more active than compound 7 experimentally ([1]; ratio of PTP-1B IC50, UA vs compound 7): 2.2 times; pIC50 (PTP-1B): […]
